Values quoted from earlier work as cited in patent US20030039708A1, “NON-MA HUANG HERB WEIGHT LOSS PRODUCT” (priority 2001, published 2003).
Where two headings read alike, the source gives them in different places.

Legend:
[1] = obese patients
[2] = placed in water
[3] = double-blind study
[4] = placebo group gained weight over the length of the trial
[5] = in combination with diet, versus diet alone
[6] = not given; remark: listed apart in the source
[7] = in vivo

Q: With `[Cr]` [chromium] as the molecule, how does the abdominal fat gained (placebo group gained 6.5%) read?
A: 1%

Q: And the “reduction of insulin resistance” value (statistically significant, maintained at the end of eight months)?
A: 40%

Q: And the lean body mass [1]?
A: increased

Q: With Glucomannan as the molecule, how does the swelling in water [2] read?
A: up to 17 times its original volume

Q: And the HDL cholesterol [3]?
A: no significant increase

Q: And the LDL cholesterol [3]?
A: significant reductions

Q: What about the systolic blood pressure [3] of the same molecule?
A: reduced

Q: And the total cholesterol [3]?
A: significant reductions

Q: What about the triglycerides [3] of the same molecule?
A: significant reductions

Q: And the body weight change [4]?
A: weight loss

Q: What about the blood glucose [5] of the same molecule?
A: more effective than diet alone

Q: And the body weight [5]?
A: more effective than diet alone

Q: What about the “hunger and satiety sensation” value [5] of the same molecule?
A: more effective than diet alone

Q: And the total serum cholesterol [5]?
A: more effective than diet alone

Q: What about the tolerability ([6]; long term treatment of severe obesity) of the same molecule?
A: well tolerated

Q: And the “weight loss in relation to the fatty mass alone” value ([6]; severely obese patients, diet plus glucomannan)?
A: more significant weight loss

Q: With `O=C(O[C@@H]1Cc2c(O)cc(O)cc2O[C@@H]1c1cc(O)c(O)c(O)c1)c1cc(O)c(O)c(O)c1` [Epigallocatechin gallate] as the molecule, how does the blood cholesterol [7] read?
A: significantly reduced

Q: And the blood triglyceride [7]?
A: significantly reduced

Q: And the body weight [7]?
A: significantly reduced

Q: What about the food intake [7] of the same molecule?
A: significantly reduced

Q: And the “growth of the prostate, uterus, and ovary” value [7]?
A: significantly reduced
